These results are taken from ChEMBL document CHEMBL1201862, “PubChem BioAssay data set” (2004).

SMILES strings stand for the structures.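 1) Cells in 96-well plates. 2) Compound, 48 h, 5 concentrations. 3) Linear interpolation between surrounding doses. 4) Unreached endpoint = highest concentration. GI50 is the concentration that inhibits growth by half.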 Activity calls are given as the source filed them. Cut-off read from the data, not from the text of the source: active = GI50 up to about 1.1 µM and inactive = higher. Some results are limits rather than exact numbers.

Some test systems named below: RXF 393; HCT-15; Hs-578T; OVCAR-5; UACC-62; IGROV-1; 786-0; HOP-92; U-251; OVCAR-8; KM12; MDA-MB-435; SK-OV-3; SF-268; TK-10; M14; MDA-MB-231; NCI-H23; CCRF-CEM; COLO 205.
What all share (experiment): NCI tumour cell line growth inhibition, 48 h

For the molecule `N=c1sc2ccccc2n1CC[S-].c1ccc2c(c1)sc1[n+]2CCS1`, the GI50 with RXF 393 is 20.7 µM (inactive); with HCT-15 it was 16.7 µM; with Hs-578T, 42.6 µM (inactive); in the test with OVCAR-5, 20.5 µM (inactive); in the test on UACC-62, 14 µM (inactive); with IGROV-1 it was 12.5 µM (inactive). The GI50 with 786-0 is 16.8 µM (inactive); in the test with HOP-92, 17 µM (inactive); with U-251 it was 15.5 µM (inactive); in the test with OVCAR-8 it was 17.1 µM (inactive); in the test on KM12 it was 17.5 µM (inactive); with MDA-MB-435, 15.7 µM (inactive). Moreover, the GI50 was 23.1 µM (inactive) in the test on SK-OV-3; 20 µM (inactive) in the test with SF-268; 22.8 µM (inactive) in the test on TK-10; 16.1 µM (inactive) in the test with M14; 17 µM (inactive) with MDA-MB-231; 16.1 µM (inactive) with NCI-H23. For the same molecule, the GI50 was 9.06 µM (inactive) in the test on CCRF-CEM and 14.3 µM (inactive) in the test with COLO 205.

Turning to `COc1cccc(CC(C)NCC(O)c2ccc(O)c(O)c2)c1` (stereo not given), the GI50 in the test with RXF 393 is > 100 µM (inactive); in the test on HCT-15, 44.6 µM; with Hs-578T it was 57.1 µM (inactive); with OVCAR-5, 17.3 µM (inactive); in the test on UACC-62, 37.5 µM (inactive); in the test with IGROV-1, 92 µM (inactive). Moreover, the GI50 was 37.8 µM (inactive) in the test on 786-0; 6.59 µM (inactive) in the test with HOP-92; 45.6 µM (inactive) in the test with U-251; 18.7 µM (inactive) in the test on OVCAR-8; 55.5 µM (inactive) in the test on KM12; 44.4 µM (inactive) in the test on MDA-MB-435. The GI50 in the test on SK-OV-3 was 16.6 µM (inactive); in the test with SF-268, 50.5 µM (inactive); in the test with TK-10, 25.6 µM (inactive); with M14 it was 38 µM (inactive); with MDA-MB-231 it was 10.8 µM (inactive); with NCI-H23 it was 33.7 µM (inactive). The GI50 is 21 µM (inactive) in the test on CCRF-CEM and 19 µM (inactive) in the test on COLO 205.

On to `CN(Cc1cccc2ccsc12)/N=C\c1ccc(Cl)cc1`, for which the GI50 is > 100 µM (inactive) in the test with RXF 393; 34.7 µM with HCT-15; > 100 µM (inactive) with Hs-578T; > 100 µM (inactive) in the test with OVCAR-5; > 100 µM (inactive) with UACC-62; > 100 µM (inactive) in the test with IGROV-1. Besides, the GI50 in the test on 786-0 is > 100 µM (inactive); in the test with HOP-92, > 100 µM (inactive); in the test on U-251, > 100 µM (inactive); in the test on OVCAR-8, > 100 µM (inactive); in the test with KM12 it was 58.5 µM (inactive); in the test on MDA-MB-435, 49.3 µM (inactive). The GI50 in the test on SK-OV-3 is > 100 µM (inactive); in the test with SF-268, > 100 µM (inactive); with TK-10 it was > 100 µM (inactive); in the test on M14, 79.4 µM (inactive); with MDA-MB-231 it was > 100 µM (inactive); in the test on NCI-H23, 28.4 µM (inactive). In addition, the GI50 in the test on CCRF-CEM is 31.3 µM (inactive); with COLO 205, 74.8 µM (inactive).

As for `CC(C)=CCC[C@@H](C)c1c2nc3ccccc3[nH]c-2c(C)c(=O)c1O`, the GI50 was 1.14 µM (inactive) with RXF 393; 0.236 µM with HCT-15; 2.28 µM (inactive) in the test with Hs-578T; 3.52 µM (inactive) with OVCAR-5; 1.09 µM (active) with UACC-62; 2.07 µM (inactive) in the test with IGROV-1. Besides, the GI50 in the test on 786-0 is 1.75 µM (inactive); with HOP-92, 1.41 µM (inactive); in the test on U-251 it was 1.6 µM (inactive); with OVCAR-8, 1.71 µM (inactive); in the test on KM12, 2.45 µM (inactive); in the test with MDA-MB-435, 2.73 µM (inactive). In addition, the GI50 in the test with SK-OV-3 was 2.15 µM (inactive); with SF-268, 0.906 µM (active); in the test with TK-10 it was 2.58 µM (inactive); with M14, 1.44 µM (inactive); with MDA-MB-231, 1.73 µM (inactive); in the test on NCI-H23, 1.89 µM (inactive). Moreover, the figures for the GI50 in the test with CCRF-CEM and in the test on COLO 205 were 0.27 µM (active) and 5.65 µM (inactive), respectively.

Regarding `COc1cc2c(cc1O)NC(=O)[C@@H]1CCCN1C2=O`, the GI50 was > 100 µM (inactive) in the test with RXF 393; > 100 µM in the test with HCT-15; 24 µM (inactive) with Hs-578T; > 100 µM (inactive) in the test on OVCAR-5; > 100 µM (inactive) with UACC-62; > 100 µM (inactive) with IGROV-1. Moreover, the GI50 in the test on 786-0, in the test with HOP-92, in the test on U-251, with OVCAR-8, in the test on KM12 and with MDA-MB-435 was > 100 µM (inactive) each time. Further, the GI50 in the test with SK-OV-3, with SF-268, with TK-10, in the test on M14, with MDA-MB-231 and in the test on NCI-H23 was > 100 µM (inactive) in each case. Further, the GI50 in the test on CCRF-CEM and in the test on COLO 205 was > 100 µM (inactive) each time.

Take `Cc1cccc(NC(=O)CC(=O)N2N=C(N3c4ccccc4Sc4ccccc43)CC2c2ccccc2)c1` (stereo not given): the GI50 in the test with RXF 393 was > 100 µM (inactive); with HCT-15, > 100 µM; in the test with Hs-578T, > 100 µM (inactive); in the test on OVCAR-5 it was > 100 µM (inactive); in the test on UACC-62, > 100 µM (inactive); in the test with IGROV-1, > 100 µM (inactive). The GI50 in the test with 786-0, in the test with HOP-92, in the test with U-251, in the test with OVCAR-8, with KM12 and with MDA-MB-435 was > 100 µM (inactive) throughout. The GI50 with SK-OV-3, with SF-268, in the test with TK-10, in the test with M14, in the test with MDA-MB-231 and with NCI-H23 was > 100 µM (inactive) throughout. Further, the GI50 with CCRF-CEM and in the test on COLO 205 was > 100 µM (inactive) each time.

For `COCC(C#N)NC1CC(OC2CC(O)(C(=O)CO)Cc3c(O)c4c(c(O)c32)C(=O)c2c(OC)cccc2C4=O)OC(C)C1O` (stereo not given), the GI50 was 0.177 µM (active) in the test on RXF 393; 0.802 µM with HCT-15; 0.161 µM (active) in the test with Hs-578T; 0.247 µM (active) with OVCAR-5; 0.0574 µM (active) in the test with UACC-62; 0.0404 µM (active) in the test with IGROV-1. Also, the GI50 in the test on 786-0 is 0.0434 µM (active); in the test on HOP-92 it was 0.393 µM (active); with U-251, 0.0286 µM (active); with OVCAR-8 it was 0.0676 µM (active); with KM12, 0.103 µM (active); in the test on MDA-MB-435 it was 0.108 µM (active). The GI50 was 0.0869 µM (active) in the test with SK-OV-3; 0.0419 µM (active) in the test on SF-268; 0.19 µM (active) in the test on TK-10; 0.134 µM (active) in the test on M14; 0.112 µM (active) in the test on MDA-MB-231; 0.0592 µM (active) in the test on NCI-H23. The GI50 with CCRF-CEM was 0.0202 µM (active); with COLO 205 it was 0.0483 µM (active).
